Experimental data published in patent publication US4115385A, “Antibacterial 3-(5-tetrazolyl) penam compounds” (Pfizer Inc., priority 1977, dated 1978).
≈ marks a conversion by molar mass, not a printed value.

Test system: Streptococcus pyogenes
Test: In vitro minimum inhibitory concentration (MIC) vs. Strep. pyogenes
Assay type: cell-based
Settings: Streptococcus pyogenes, read-out: MIC vs. Strep. pyogenes
Description: The antibacterial penam compounds of the instant invention show activity against a wide variety of gram-positive and gram-negative bacteria. […] The broth is inoculated with the bacterial culture, and with the test antibiotic, and then it is incubated overnight. On the next day, the test is read visually. The minimum inhibitory concentration (MIC) is the lowest concentration of antibiotic which prevents turbidity, i.e., which prevents growth of the microorganism. In vitro activities of several of the penam compounds of the invention are presented later in this specification.
In Table II, the minimum inhibitory concentrations (MIC's) of compounds of formula I, wherein R^2 is hydrogen, against a strain of Streptococcus pyogenes, are reported; and in Table III, minimum inhibitory concentrations of compounds of formula I, wherein R^2 is hydrogen, against a strain of Staphylococcus aureus, are presented. Because of the tautomeric nature of such tetrazole derivatives, referred to hereinbefore,each of the preparations tested also contains some of the corresponding compound of formula II, wherein R^3 is hydrogen.

SMILES | MIC [µg/mL]
CC1(C)S[C@@H]2[C@H](NC(=O)Cc3cccc(OCCN)c3)C(=O)N2[C@H]1c1nn[nH]n1 [2-(3-[2-aminoethoxy]phenyl)acetyl, 6-(2-[3-(2-Aminoethoxy)phenyl]acetamido)-2,2-dimethyl-3-(5-tetrazolyl)penam] | < 0.1
CC1(C)S[C@@H]2[C@H](NC(=O)CNC(=O)NC(=N)c3ccccc3)C(=O)N2[C@H]1c1nnn[nH]1 [2-(3-[benzimidoyl]ureido)-acetyl] | < 0.1
CC(=O)NC(=O)N[C@@H](C(=O)N[C@@H]1C(=O)N2[C@@H]1SC(C)(C)[C@@H]2c1nn[nH]n1)c1ccccc1 [2-(3-acetylureido)-2-phenylacetyl] | < 0.1
CC1(C)S[C@@H]2[C@H](NC(=O)Cc3sccc3CN)C(=O)N2[C@H]1c1nnn[nH]1 [2-(3-aminomethyl-2-thienyl)-acetyl, 6-(2-[3-Aminomethyl-2-thienyl]acetamido)-2,2-dimethyl-3-(5-tetrazolyl)penam] | ≤ 0.1
CC1(C)S[C@@H]2[C@H](NC(=O)Cc3sccc3CN=[N+]=[N-])C(=O)N2[C@H]1c1nnn[nH]1 [2-(3-azidomethyl-2-thienyl-acetyl, 6-(2-[3-Azidomethyl-2-thienyl]acetamido)-2,2-dimethyl-3-(5-tetrazolyl)penam] | ≤ 0.1
CC1(C)S[C@@H]2[C@H](NC(=O)[C@H](NC(=O)NC(=O)c3ccccc3)c3ccccc3)C(=O)N2[C@H]1c1nn[nH]n1 [2-(3-benzoylureido)-2-phenylacetyl] | < 0.1
CCCC(=O)NC(=O)N[C@@H](C(=O)N[C@@H]1C(=O)N2[C@@H]1SC(C)(C)[C@@H]2c1nn[nH]n1)c1ccccc1 [2-(3-butyrylureido)-2-phenylacetyl] | < 0.1
CCC(=O)NC(=O)N[C@@H](C(=O)N[C@@H]1C(=O)N2[C@@H]1SC(C)(C)[C@@H]2c1nn[nH]n1)c1ccccc1 [2-(3-propionylureido)-2-phenylacetyl] | < 0.1
CC1(C)S[C@@H]2[C@H](NC(=O)Cc3ccc(OCCN)cc3)C(=O)N2[C@H]1c1nn[nH]n1 [2-(4-[2-aminoethoxy]phenyl)acetyl, 6-(2-[4-(2-Aminoethoxy)phenyl]acetamido)-2,2-dimethyl-3-(5-tetrazolyl)penam] | < 0.1
CC1(C)S[C@@H]2[C@H](NC(=O)Cc3ccc(OCCN=[N+]=[N-])cc3)C(=O)N2[C@H]1c1nn[nH]n1 [2-(4-[2-azidoethoxy]phenyl)acetyl, 6-(2-[4-(2-Azidoethoxy)phenyl]acetamido)-2,2-dimethyl-3-(5-tetrazolyl)penam] | < 0.1
CC1(C)S[C@@H]2[C@H](NC(=O)Cc3ccc(CN)cc3)C(=O)N2[C@H]1c1nnn[nH]1 [2-(4-aminomethylphenyl)acetyl, 6-(2-[4-Aminomethylphenyl]acetamido)-2,2-dimethyl-3-(5-tetrazolyl)penam] | < 0.1
CC1(C)S[C@@H]2[C@H](NC(=O)CNC(=N)c3ccncc3)C(=O)N2[C@H]1c1nnn[nH]1 [2-(4-pyridinecarboxamidino)acetyl] | < 0.1
CC1(C)S[C@@H]2[C@H](NC(=O)CSc3ccncc3)C(=O)N2[C@H]1c1nnn[nH]1 [2-(4-pyridylthio)acetyl, 6-(2-[4-Pyridylthio]acetamido)-2,2-dimethyl-3-(5-tetrazolyl)penam] | < 0.1
CC1(C)S[C@@H]2[C@H](NC(=O)Cc3ccc(CN)s3)C(=O)N2[C@H]1c1nnn[nH]1 [2-(5-aminomethyl-2-thienyl)-acetyl, 6-(2-[5-Aminomethyl-2-thienyl]acetamido)-2,2-dimethyl-3-(5-tetrazolyl)penam] | ≤ 0.1
CC1(C)S[C@@H]2[C@H](NC(=O)Cc3ccc(CN=[N+]=[N-])s3)C(=O)N2[C@H]1c1nnn[nH]1 [2-(5-azidomethyl-2-thienyl)-acetyl, 6-(2-[5-Azidomethyl-2-thienyl]acetamido)-2,2-dimethyl-3-(5-tetrazolyl)penam] | ≤ 0.1
CC1(C)S[C@@H]2[C@H](NC(=O)C(C(=O)Oc3ccc4c(c3)CCC4)c3ccccc3)C(=O)N2[C@H]1c1nnn[nH]1 (some centres unmarked) [2-(5-indanyloxycarbonyl)-2-phenylacetyl, 6-(2-[5-Indanyloxycarbonyl]-2-phenylacetamido)-2,2-dimethyl-3-(5-tetrazolyl)penam] | < 0.1
CC(=N)NCC(=O)N[C@@H]1C(=O)N2[C@@H]1SC(C)(C)[C@@H]2c1nnn[nH]1 [2-(acetamidino)acetyl] | < 0.1
CC1(C)S[C@@H]2[C@H](NC(=O)CNC(=O)c3ccccc3)C(=O)N2[C@H]1c1nn[nH]n1 [2-(benzamido)acetyl, 6-(2-[Benzamido]acetamido)-2,2-dimethyl-3-(5-tetrazolyl)penam] | 0.1 (≈ 0.249 µM)
CCSCC(=O)N[C@@H]1C(=O)N2[C@@H]1SC(C)(C)[C@@H]2c1nnn[nH]1 [2-(ethylthio)acetyl] | < 0.1
CC1(C)S[C@@H]2[C@H](NC(=O)Cc3ccccc3OCCN)C(=O)N2[C@H]1c1nn[nH]n1 [2-(o-[2-aminoethoxy]phenyl)acetyl, 6-(2-[2-(2-Aminoethoxy)phenyl]acetamido)-2,2-dimethyl-3-(5-tetrazolyl)penam] | < 0.1
CC1(C)S[C@@H]2[C@H](NC(=O)Cc3ccccc3CN)C(=O)N2[C@H]1c1nnn[nH]1 [2-(o-[aminomethyl]phenyl)acetyl, 6-[2-[o-(aminomethyl)phenyl]acetamido]-2,2-dimethyl-3-(5-tetrazolyl)penam] | < 0.1
CC1(C)S[C@@H]2[C@H](NC(=O)C(C(=O)O)c3cccs3)C(=O)N2[C@H]1c1nnn[nH]1 (some centres unmarked) [2-carboxy-2-(2-thienyl)acetyl, 6-(2-Carboxy-2-[2-thienyl]acetamido)-2,2-dimethyl-3-(5-tetrazolyl)penam] | 0.1 (≈ 0.245 µM)
CC1(C)S[C@@H]2[C@H](NC(=O)C(C(=O)O)c3ccsc3)C(=O)N2[C@H]1c1nnn[nH]1 (some centres unmarked) [2-carboxy-2-(3-thienyl)acetyl, 6-(2-Carboxy-2-[3-thienyl]acetamido)-2,2-dimethyl-3-(5-tetrazolyl)penam] | 0.1 (≈ 0.245 µM)
CCOc1ccc2ccccc2c1C(=O)N[C@@H]1C(=O)N2[C@@H]1SC(C)(C)[C@@H]2c1nnn[nH]1 [2-ethoxy-1-naphthoyl, 6-(2-Ethoxy-1-naphthamido)-2,2-dimethyl-3-(5-tetrazolyl)penam] | < 0.1
CCNC(=O)N[C@@H]1C(=O)N2[C@@H]1SC(C)(C)[C@@H]2c1nnn[nH]1 [3-ethylcarbamoyl, 6-(3-ethylureido)-2,2-dimethyl-3-(5-tetrazolyl)penam] | < 0.1
CC1(C)S[C@@H]2[C@H](NC(=O)Nc3ccccc3)C(=O)N2[C@H]1c1nnn[nH]1 [3-phenylcarbamoyl, 6-(3-Phenylureido)-2,2-dimethyl-3-(5-tetrazolyl)penam] | < 0.1
CC1(C)S[C@@H]2[C@H](NC(=O)[C@H](NC(=O)CNC(=O)c3ccccc3)c3ccccc3)C(=O)N2[C@H]1c1nn[nH]n1 [6-(2-D-[2-Benzamidoacetamido]-2-phenylacetamido)-2,2-dimethyl-3-(5-tetrazolyl)penam] | < 0.1

Same assay, conditions: Streptococcus pyogenes; Table II; two-fold serial dilution, Brain-Heart Infusion broth, overnight; read-out: MIC vs. Strep. pyogenes

MIC [µg/mL] | SMILES
0.2 (≈ 0.406 µM) | CC1(C)S[C@@H]2[C@H](NC(=O)[C@H](NC(=O)NC(=O)CCl)c3ccccc3)C(=O)N2[C@H]1c1nn[nH]n1 [2-(3-[chloroacetyl]ureido-2-phenylacetyl]
1.56 (≈ 2.91 µM) | CC1(C)S[C@@H]2[C@H](NC(=O)[C@H](NC(=S)NC(=O)c3ccccc3)c3ccccc3)C(=O)N2[C@H]1c1nn[nH]n1 [2-(3-benzoylthioureido)-2-phenylacetyl]
0.2 (≈ 0.494 µM) | CC1(C)S[C@@H]2[C@H](NC(=O)CSCc3ccccc3)C(=O)N2[C@H]1c1nnn[nH]1 [2-(benzylthio)acetyl]
0.39 (≈ 1.1 µM) | CCOC(=O)CC(=O)N[C@@H]1C(=O)N2[C@@H]1SC(C)(C)[C@@H]2c1nnn[nH]1 [2-(ethoxycarbonyl)acetyl]
0.78 (≈ 2 µM) | CC1(C)S[C@@H]2[C@H](NC(=O)CSc3ccccc3)C(=O)N2[C@H]1c1nnn[nH]1 [2-(phenylthio)acetyl, 6-(2-[phenylthio]acetamido)-2,2-dimethyl-3-(5-tetrazolyl)penam]
0.039 (≈ 0.1 µM) | CC1(C)S[C@@H]2[C@H](NC(=O)C(N)c3ccc(N)cc3)C(=O)N2[C@H]1c1nnn[nH]1 (some centres unmarked) [2-amino-2-(4-aminophenyl)acetyl]
0.002 (≈ 0.00497 µM) | CC1(C)S[C@@H]2[C@H](NC(=O)C(C(=O)O)c3ccccc3)C(=O)N2[C@H]1c1nnn[nH]1 (some centres unmarked) [2-carboxy-2-phenylacetyl, 6-(2-Carboxy-2-phenylacetamido)-2,2-dimethyl-3-(5-tetrazolyl)penam]
200 (≈ 456 µM) | CC1(C)S[C@@H]2[C@H](NC(=O)C(c3ccccc3)S(=O)(=O)O)C(=O)N2[C@H]1c1nnn[nH]1 (some centres unmarked) [2-sulfo-2-phenylacetyl, 6-(2-Sulfo-2-phenylacetamido)-2,2-dimethyl-3-(5-tetrazolyl)penam]
< 0.1 | CC1(C)S[C@@H]2[C@H](NC(=O)/C=C\C(N)=O)C(=O)N2[C@H]1c1nnn[nH]1 [3-(carbamoyl)acryloyl, 6-(3-[Carbamoyl]acrylamido)-2,2-dimethyl-3-(5-tetrazolyl)penam]
12.5 (≈ 30.2 µM) | C/C(CN)=C(\C(=O)NC1C(=O)N2C(c3nnn[nH]3)C(C)(C)S[C@H]12)c1ccccc1 (some centres unmarked) [3-aminomethyl-2-phenylisocrotonoyl, 6-(3-Aminomethyl-2-phenylisocrotonamido)-2,2-dimethyl-3-(5-tetrazolyl)penam]

Same assay, conditions: Table II; two-fold serial dilution, Brain-Heart Infusion broth, overnight

SMILES | MIC vs. Strep. pyogenes [µg/mL]
CC1(C)SC2C(NC(=O)[C@@H](c3ccccc3)S(N)(=O)=O)C(=O)N2C1c1nnn[nH]1 (stereo partly drawn) [2-sulfamoyl-2-phenylacetyl, 6-(D-2-Sulfamoyl-2-phenylacetamido)-2,2-dimethyl-3-(5-tetrazolyl)penam] | < 0.1
